In patent US20240082237A1, “PHARMACEUTICAL COMPOSITIONS COMPRISING A DEXTROMETHORPHAN COMPOUND AND QUINIDINE FOR THE TREATMENT OF AGITATION IN DEMENTIA” (priority 2014, published 2024):
Read-outs that look alike come from different tables or passages of the source.

Experiments:
[1] = tested on: healthy subjects; experiment: Example 6 Phase 1 drug interaction study: safety (adverse events); format: in vivo, human
Procedure: Safety was evaluated in all subjects throughout the study and included adverse event (AE) reporting, electrocardiograms (ECGs), laboratory evaluations, physical examinations, and vital signs. The Columbia-Suicide Severity Rating Scale (C-SSRS) was used to prospectively assess suicidal ideation and behavior throughout the study.
Safety: Safety was evaluated in all subjects throughout the study and included adverse event (AE) reporting, electrocardiograms (ECGs), laboratory evaluations, physical examinations, and vital signs. The Columbia-Suicide Severity Rating Scale (C-SSRS) was used to prospectively assess suicidal ideation and behavior throughout the study as part of the safety assessments per the FDA guidance, “Suicidal Ideation and Behavior: Prospective Assessment of Occurrence in Clinical Trials.”
Safety: Safety variables, including incidence of adverse events, vital signs, ECG parameters, and clinical laboratory results, were summarized by treatment. Responses to the C-SSRS questionnaire were listed for each subject. Individual subject profiles were presented for any questions with an abnormal response.

[2] = clinical
Excerpt: (§1) Subjects attended a Screening visit at the clinic within 14 days prior to enrolment (Day 1). If eligible, the subjects were enrolled on Day 1 to one of 4 Groups (Day 1 occurred on different days for different groups to ensure the availability of beds in the units for those dates). Subjects returned to the clinic daily for out-patient dosing until the second day of (morning) PK sampling (this day differed between treatment groups). After the second day (morning) PK sampling, subjects were admitted to the clinic that night before (full) PK sampling the next day. Subjects stayed in the in-patient unit until the last day of PK sampling (length of time differed between treatment groups based on the amount of time for the study medications to reach steady state).
(§2) Samples were collected for PK evaluation up to 36 hours post the last dose of study medication.
(§3) Paroxetine 20 mg tablets. Duloxetine 20 mg capsules. Subjects received study medication as per the study schedule, provided above in Methodology.
(§4) Each dose (consisting of one capsule/tablet) was administered orally with 240 mL of room temperature water. Morning doses were preceded by an overnight fast (i.e., at least 8 hours) from food (not including water) and evening doses were preceded by at least a 2-hour fast from food. All doses were followed by a fast from food (not including water) for at least 2 hours post-dose.
(§5) Pre-dose and 0.5, 1, 2, 3, 4, 6, 8, and 12 hours after the morning dose on the last day of single medication dosing. For Group 1 only, as paroxetine was administered once a day, an additional sample was taken at 24 hours after the last day of single dosing (prior to the first combined dosing).
(§6) Pre-dose and 0.5, 1, 2, 3, 4, 6, 8, 12, 24, and 36 hours after the morning dose on the last day of combined dosing
(§7) Prior to the morning dose on Day 4 (for Groups 2 and 4 only) and on each of the 2 days prior to the last day of single medication dosing and the last day of combined dosing.
(§8) Mean plasma concentration-time profiles were plotted by treatment on linear and semi-logarithmic scales. In addition, non-compartmental PK parameters were derived. […] The point estimates and confidence limits were determined using the log transformed data and then transformed back to the original scale. The analysis was performed using analysis of variance with the terms Subject and Treatment.

[3] = molecular target: T1, CYP2D6 (Homo sapiens, UniProt P10635); conditions: cited from earlier work
[4] = molecular target: T2, norepinephrine transporter (Homo sapiens, UniProt P23975); conditions: inhibits uptake of norepinephrine; cited from earlier work
[5] = molecular target: T2, norepinephrine transporter; conditions: affinity; cited from earlier work
[6] = molecular target: sigma-1 (Homo sapiens, UniProt Q99720); conditions: sigma-1 agonist; cited from earlier work
[7] = molecular target: N-methyl-D-aspartate (NMDA) receptor; conditions: weak uncompetitive antagonist; cited from earlier work
[8] = clinical; remark: listed apart in the source
Excerpt: as §1, §2, §3, §4, §5, §6, §7, §8

[9] = tested on: receptors responsible for modulation of glutamate, monoamine, sigma-1, and nicotinic cholinergic pathways; experiment: Pharmacology studies with deuterated DM
[10] = molecular target: T1, CYP2D6; conditions: in vitro metabolism, various species including human
[11] = Toxicology studies with d6-DM and 13-week toxicity study with d6-DM/Q; format: in vivo; conditions: at comparable exposures; adverse clinical signs associated with CNS effects
[12] = Group 1, Day 20 (combined dosing paroxetine + AVP-786), plasma, mean
[13] = Group 1, Day 20 (combined dosing paroxetine + AVP-786), plasma, median
[14] = Group 2, Day 8 (AVP-786 single treatment), plasma, mean
[15] = Group 2, Day 8 (AVP-786 single treatment), plasma, median
[16] = Group 2, Day 20 (combined dosing AVP-786 + paroxetine), plasma, mean
[17] = Group 2, Day 20 (combined dosing AVP-786 + paroxetine), plasma, median
[18] = Group 3, Day 13 (combined dosing duloxetine + AVP-786), plasma, mean
[19] = Group 3, Day 13 (combined dosing duloxetine + AVP-786), plasma, median
[20] = Group 4, Day 8 (AVP-786 single treatment), plasma, mean
[21] = Group 4, Day 8 (AVP-786 single treatment), plasma, median
[22] = Group 4, Day 13 (combined dosing AVP-786 + duloxetine), plasma, mean
[23] = Group 4, Day 13 (combined dosing AVP-786 + duloxetine), plasma, median
[24] = Group 2: AVP-786-30/4.75 BID + paroxetine 20 mg once daily vs AVP-786 alone, steady state, N 14
[25] = Group 4: AVP-786-30/4.75 BID + duloxetine 20 mg BID vs AVP-786 alone, steady state, N 11

T1 sequence (P10635 whole entry): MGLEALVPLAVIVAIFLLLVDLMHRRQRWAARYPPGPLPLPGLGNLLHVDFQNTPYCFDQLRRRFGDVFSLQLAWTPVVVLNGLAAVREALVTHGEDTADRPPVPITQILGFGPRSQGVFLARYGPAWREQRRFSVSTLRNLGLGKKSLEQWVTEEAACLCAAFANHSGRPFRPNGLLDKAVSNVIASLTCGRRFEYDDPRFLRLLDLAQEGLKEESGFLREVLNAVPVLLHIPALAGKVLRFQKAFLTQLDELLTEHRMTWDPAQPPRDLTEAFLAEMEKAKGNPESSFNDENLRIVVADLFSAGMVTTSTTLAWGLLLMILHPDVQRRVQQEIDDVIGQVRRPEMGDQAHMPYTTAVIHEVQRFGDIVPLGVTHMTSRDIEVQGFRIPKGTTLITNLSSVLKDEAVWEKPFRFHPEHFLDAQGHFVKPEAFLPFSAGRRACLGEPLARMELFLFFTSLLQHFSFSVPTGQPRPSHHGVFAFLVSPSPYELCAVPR
T2 sequence (P23975 whole entry, species assumed): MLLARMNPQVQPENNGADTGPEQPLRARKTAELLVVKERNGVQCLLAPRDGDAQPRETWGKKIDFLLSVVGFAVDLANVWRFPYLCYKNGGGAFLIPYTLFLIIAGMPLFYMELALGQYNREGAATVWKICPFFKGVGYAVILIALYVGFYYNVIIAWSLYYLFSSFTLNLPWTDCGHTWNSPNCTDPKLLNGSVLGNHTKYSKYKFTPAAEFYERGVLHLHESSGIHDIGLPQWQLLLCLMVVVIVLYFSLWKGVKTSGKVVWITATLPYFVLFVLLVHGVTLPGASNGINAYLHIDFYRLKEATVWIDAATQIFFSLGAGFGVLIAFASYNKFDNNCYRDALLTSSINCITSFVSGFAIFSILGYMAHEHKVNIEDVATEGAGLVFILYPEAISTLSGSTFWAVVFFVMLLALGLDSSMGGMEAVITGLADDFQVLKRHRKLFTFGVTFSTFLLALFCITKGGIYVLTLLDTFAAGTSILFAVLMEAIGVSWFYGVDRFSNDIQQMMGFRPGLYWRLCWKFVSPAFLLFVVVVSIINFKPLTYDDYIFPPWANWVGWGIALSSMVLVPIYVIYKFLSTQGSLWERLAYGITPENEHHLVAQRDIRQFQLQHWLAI
Sequence of sigma-1 (Q99720 whole entry): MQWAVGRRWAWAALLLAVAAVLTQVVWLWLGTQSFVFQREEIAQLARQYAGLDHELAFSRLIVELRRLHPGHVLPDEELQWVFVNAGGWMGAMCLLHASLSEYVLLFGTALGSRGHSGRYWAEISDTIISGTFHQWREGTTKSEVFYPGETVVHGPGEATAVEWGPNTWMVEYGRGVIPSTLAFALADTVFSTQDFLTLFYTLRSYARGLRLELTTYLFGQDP

Compound: Fc1ccc([C@@H]2CCNC[C@H]2COc2ccc3c(c2)OCO3)cc1 [Paroxetine, paroxetine, reference compound]
- treatment-emergent AEs reported, subjects ([1]; Groups 1 and 2, healthy subjects): 50%
- AUC(0-t) ([2]; both, human, in vivo, AUC0-24 (PAR)): 452 ng·h/mL
- Cmax ([2]; both, human, in vivo, Cmax): 29.5 ng/mL
- Tmax ([2]; both, human, in vivo, Tmax): 4 h

Compound: CC(CCc1ccccc1)NCC(O)c1ccc(O)c(C(N)=O)c1 (stereo not shown) [labetalol]
- Ki [3]: ≤ 50 µM

Compound: COc1ccc2c(c1)[C@@]13CCCC[C@H]1[C@@H](C2)N(C)CC3 [DM, (+)-3-methoxy-N-methylmorphinan]
- Ki [5]: 13 µM
- Ki [6]: 0.2 µM
- Ki [7]: 1.5 µM

Compound: C=C[C@H]1C[N@]2CC[C@@H]1C[C@@H]2[C@@H](O)c1ccnc2ccc(OC)cc12 [Quinidine, quinidine]
- AUC0-12 ([2]; both, human, in vivo): 146 ng·h/mL
- Cmax ([2]; both, human, in vivo): 23.1 ng/mL
- Tmax ([2]; both, human, in vivo): 1.00 h
- AUC0-12 ([8]; both, human, in vivo): 160 ng·h/mL
- Cmax ([8]; both, human, in vivo): 24.9 ng/mL
- Tmax ([8]; both, human, in vivo): 1.00 h

Compound: [2H]C([2H])([2H])Oc1ccc2c(c1)[C@]13CCCC[C@@H]1[C@H](C2)N(C([2H])([2H])[2H])CC3 [d6-DM]
- AUC0-12 [2, 12]: 943 ng·h/mL
- Cmax [2, 12]: 93.5 ng/mL
- Tmax [2, 13]: 2.00 h
- AUC0-12 [2, 14]: 467 ng·h/mL
- Cmax [2, 14]: 54.6 ng/mL
- Tmax [2, 15]: 3.00 h
- Cmax [2, 16]: 100 ng/mL
- t1/2 [2, 16]: 17.3 h
- Tmax [2, 17]: 3.00 h
- AUC0-12 [8, 18]: 692 ng·h/mL
- Cmax [8, 18]: 72.7 ng/mL
- t1/2 [8, 18]: 13.3 h
- AUC0-12 [8, 20]: 540 ng·h/mL
- Cmax [8, 20]: 59.0 ng/mL
- Tmax [8, 21]: 3.00 h
- AUC0-12 [8, 22]: 605 ng·h/mL
- t1/2 [8, 22]: 12.6 h
- Tmax [8, 23]: 3.00 h
- metabolites identified compared to DM [10]: no unique metabolites
- dose-limiting toxicities (DLTs) of d6-DM and DM [11]: comparable

Compound: C=CCOc1ccccc1OCC(O)CNC(C)C (stereo not shown) [oxprenolol]
- Ki [3]: ≤ 50 µM

Compound: CNCC[C@H](Oc1cccc2ccccc12)c1cccs1 [Duloxetine, duloxetine, reference compound]
- treatment-emergent AEs reported, subjects ([1]; Groups 3 and 4, healthy subjects): 43%
- AUC0-12 ([8]; both, human, in vivo): 194 ng·h/mL
- t1/2 ([8]; both, human, in vivo): 5.04 h
- Cmax ([8]; both, human, in vivo, Cmax): 26.1 ng/mL
- Tmax ([8]; both, human, in vivo, Tmax): 4 h

Compound: CNCCC=C1c2ccccc2CCc2ccccc21 [nortriptyline]
- Ki [3]: ≤ 50 µM

Compound: Cc1cccc(C)c1OCC(C)N (stereo not shown) [mexiletine]
- Ki [3]: ≤ 50 µM

Compound: [2H]C([2H])([2H])N1CCC23CCCCC2C1Cc1ccc(O)cc13 (stereo not shown) [d3-DX, d3-dextrorphan]
- steady state systemic exposure relative to AVP-786 alone ([2]; AVP-786 co-administered with paroxetine): approximately 75%
- AUC0-12 [2, 12]: 820 ng·h/mL
- Cmax [2, 12]: 87.2 ng/mL
- Tmax [2, 13]: 1.00 h
- AUC0-12 [2, 14]: 1142 ng·h/mL
- Cmax [2, 14]: 117 ng/mL
- Tmax [2, 15]: 3.00 h
- AUC0-12 [2, 16]: 820 ng·h/mL
- Cmax [2, 16]: 94.1 ng/mL
- Tmax [2, 17]: 0.50 h
- AUC0-12 Ratio of LS Means [2, 24]: 71.6%
- Cmax Ratio of LS Means [2, 24]: 77.1%
- AUC0-12 [8, 18]: 1295 ng·h/mL
- Cmax [8, 18]: 128 ng/mL
- t1/2 [8, 18]: 21.7 h
- Tmax [8, 19]: 3.00 h
- AUC0-12 [8, 20]: 1267 ng·h/mL
- Cmax [8, 20]: 127 ng/mL
- Tmax [8, 21]: 3.00 h
- AUC0-12 [8, 22]: 1224 ng·h/mL
- Cmax [8, 22]: 121 ng/mL
- t1/2 [8, 22]: 20.0 h
- Tmax [8, 23]: 3.00 h
- AUC0-12 Ratio of LS Means [8, 25]: 97.6%
- Cmax Ratio of LS Means [8, 25]: 96.3%
